Legend:
[1] = Fluorescence excitation and emission spectra; assay type: physicochemical
Text: FIG. 2A is a graph of Near-Infra-Red fluorescence absorbance and emission spectra of CF750 at varying wavelengths, according to an example embodiment of the present disclosure. CF750 has a NIRF peak excitation (solid line) and a peak emission (dotted line) at 760 nm and 780 nm, respectively. Likewise, FIG. 2B is a graph of near-infra-red fluorescence absorbance and emission spectra of IRDye® CW800, according to an example embodiment of the present disclosure. IRDye® CW800 has a peak NIRF excitation and a peak NIRF emission at 774 nm and 789 nm, respectively. FIG. 2C is a graph of absorbance and emission spectra of anticancer drug doxorubicin at varying wavelengths, according to an example embodiment of the present disclosure. Doxorubicin has a peak excitation and a peak emission at 470 nm and 550 nm, respectively.
DSA (3 mg) is mixed with 800 μL of 1:1 dichloromethane and methanol in a glass vial. IRDye® 800CW NHS ester (0.5 mg) was dissolved in methanol (200 μL) then immediately combined with the lipid solution. The mixture is covered to protect it from light and left on a vortex mixer for 2.5 h. The solvent is then reduced in vacuum, dissolved in minimal amount of chloroform and applied to a silica micro-column (˜3 mL) also in chloroform. The unbound fraction is reapplied several times, before elution and washing with the same solvent. Excess DSA and unreacted dye material is retained on the column and the latter is estimated at <10% of the coloured fraction. The unbound product is dried to a film and stored as a solution in 1 mL chloroform.

[2] = reported value for the free dye; cited from earlier work

Structure (SMILES): COc1cccc2c1C(=O)c1c(O)c3c(c(O)c1C2=O)C[C@@](O)(C(=O)CO)C[C@@H]3O[C@H]1C[C@H](N)[C@H](O)[C@H](C)O1 [Doxorubicin, doxorubicin]
- peak emission (Emmax) [1]: 550 nm
- peak excitation (Exmax) [1]: 470 nm

Structure (SMILES): CC1(C)C(/C=C/C2=C(Oc3ccc(S(=O)(=O)O)cc3)C(=C/C=C3/N(CCCCS(=O)(=O)O)c4ccc(S(=O)(=O)[O-])cc4C3(C)C)/CCC2)=[N+](CCCCCC(=O)O)c2ccc(S(=O)(=O)O)cc21 [IRDye® CW800]
- Emmax, reported value [2]: 789 nm
- Exmax, reported value [2]: 774 nm
- peak emission (Emmax) [1]: 789 nm
- peak excitation (Exmax) [1]: 774 nm

Source: patent publication US20220370001A1, “INTESTINAL DIAGNOSTIC SCREENING DEVICE AND METHOD FOR TARGETED GASTROINTESTINAL THERAPY” (AJM MED-I-CAPS LTD, priority 2019, published 2022)
